Activity and PC50 data for 30 compounds are collected here from ChEMBL document CHEMBL3091440, “Heptaoxygenated xanthones as anti-austerity agents from Securidaca longepedunculata” (2013).

Test [1] relates to PANC-1. Briefly: (§1) Cytotoxicity against human PANC1 cells assessed as cell viability after 24 hrs by WST8 assay. It is filed as functional. Background: Tetrazolium assays rely on reduction of a dye to a coloured formazan, in cell work by metabolically active cells.
Test [2] in a line: as §1. Format: functional, PANC-1.
The test system of test [3] is PANC-1. Briefly: Induction of apoptosis in human PANC1 cells at 50 uM after 24 hrs by Annexin V/propidium iodide staining-based fluorescence microscopy. Format: functional, cell-based.
Test [4] has as its system PANC-1. Briefly: Induction of apoptosis in human PANC1 cells grown in glucose/amino acid deprived medium after 24 hrs by phase contrast microscopy. Format: functional, cell-based.
The test system of test [5] is PANC-1. The test can be described thus: Induction of apoptosis in human PANC1 cells at 50 uM after 24 hrs by phase contrast microscopy. Format: functional, cell-based.
Test [6] has as its system PANC-1. Briefly: Induction of apoptosis in human PANC1 cells grown in glucose deprived medium after 24 hrs by phase contrast microscopy. It is filed as functional, cell-based.

Each structure is given as a SMILES string. Activity calls are given as the source filed them. The rule behind the calls is not given here.

In the case of `COc1ccc2oc3cc(O)cc(OC)c3c(=O)c2c1OC`, the Activity entry in test [1] was “Dose-dependent effect”. The PC50 in test [2] is >100 µM.

Take `COc1cc(OC)c2c(=O)c3ccc(O)c(OC)c3oc2c1`: the Activity entry in test [1] is “Dose-dependent effect”. In addition, the PC50 in test [2] came out at 93.1 µM.

As for `COc1c(OC)c(O)c2c(=O)c3c(O)cc(O)c(OC)c3oc2c1OC`, the result in test [3] was Active. In addition, the Activity entry in test [4] and in test [1] was “Dose-dependent effect” each time. Further, the PC50 in test [2] was determined as 22.7 µM. Moreover, the result in test [5] was inactive.

`COc1c(OC)c(O)c2c(=O)c3c(OC)cc(O)c(OC)c3oc2c1OC`: the outcome in test [3] was Active. Also, the Activity result in test [1] and in test [6] was “Dose-dependent effect” each time. Besides, the PC50 in test [2] amounted to 17.4 µM. Also, the result in test [5] was inactive.

Take `COc1ccc2oc3cccc(O)c3c(=O)c2c1`: the Activity result in test [1] is “Dose-dependent effect”. In test [2], the PC50 was 42.7 µM.

On to `COc1c(C(=O)c2ccccc2)ccc2c1OCO2`, for which the Activity result in test [1] is “Dose-dependent effect”. In addition, the PC50 in test [2] is >100 µM.

For `COc1cc(OC)c2c(=O)c3c(OC)c(OC)ccc3oc2c1OC`, the Activity entry in test [1] is “Dose-dependent effect”. The PC50 in test [2] was 93.6 µM.

With `COc1c(O)cc2oc3ccccc3c(=O)c2c1O`, the Activity result in test [1] was “Dose-dependent effect”. For the same compound, the PC50 in test [2] was 81.2 µM.

`COc1cc(OC)c(C(=O)c2ccccc2)cc1OC`: the Activity entry in test [1] was “Dose-dependent effect”. Also, in test [2], the PC50 is >100 µM.

Take `COc1cc(O)c2c(=O)c3c(OC)c(O)ccc3oc2c1OC`: in test [1], the Activity result is “Dose-dependent effect”. In addition, in test [2], the PC50 is 87.4 µM.

Regarding `COc1cc2oc3cccc(OC)c3c(=O)c2cc1OC`, the Activity result in test [1] was “Dose-dependent effect”. In addition, in test [2], the PC50 is >100 µM.

With `COc1c(O)ccc(C(=O)c2ccccc2)c1OC`, the Activity entry in test [1] is “Dose-dependent effect”. Moreover, in test [2], the PC50 was 81.3 µM.

As to `COc1cc(C[C@H]2C(=O)OC[C@@H]2Cc2ccc(OC)c(OC)c2)ccc1O` [ARCTIGENIN], the PC50 in test [2] came out at 0.5 µM.

Consider `COc1cc(O)c2c(=O)c3cc(O)ccc3oc2c1`, for which, in test [1], the Activity result was “Dose-dependent effect”. In addition, in test [2], the PC50 is >100 µM.

Regarding `COc1cc(O)c2c(=O)c3c(OC)c(OC)ccc3oc2c1OC`, in test [1], the Activity result was “Dose-dependent effect”. In test [2], the PC50 is 73.3 µM.

Regarding `O=c1c2ccc(O)cc2oc2cccc(O)c12`, in test [1], the Activity result is “Dose-dependent effect”. The PC50 in test [2] is >100 µM.

For `CC(=O)O[C@H]1C(=O)[C@@]2(C)[C@H]([C@H](OC(=O)c3ccccc3)[C@]3(O)C[C@H](OC(=O)[C@H](O)[C@@H](NC(=O)c4ccccc4)c4ccccc4)C(C)=C1C3(C)C)[C@]1(OC(C)=O)CO[C@@H]1C[C@@H]2O` [PACLITAXEL], in test [2], the PC50 is >100 µM.

Turning to `COc1cccc(O)c1C(=O)O`, the Activity result in test [1] was “Dose-dependent effect”. Further, in test [2], the PC50 was >100 µM.

Take `COc1cc(O)c2c(=O)c3c(OC)cc(OC)cc3oc2c1`: the Activity result in test [1] was “Dose-dependent effect”. Also, the PC50 in test [2] is >100 µM.

As for `COc1cc(OC)c2c(=O)c3ccc(O)c(O)c3oc2c1`, the Activity result in test [1] is “Dose-dependent effect”. Besides, in test [2], the PC50 was >100 µM.

Turning to `COc1cc(OC)c2c(=O)c3c(OC)c(O)ccc3oc2c1`, in test [1], the Activity entry is “Dose-dependent effect”. For the same compound, the PC50 in test [2] is >100 µM.

Consider `COc1c(O)cccc1C(=O)OCc1ccccc1`, for which the Activity result in test [1] was “Dose-dependent effect”. In addition, the PC50 in test [2] is >100 µM.

In the case of `COc1cccc(O)c1C(=O)OCc1ccccc1`, the Activity entry in test [1] was “Dose-dependent effect”. In addition, the PC50 in test [2] was >100 µM.

Take `COc1c(O)ccc(C(=O)c2ccccc2)c1O`: in test [1], the Activity result was “Dose-dependent effect”. In addition, in test [2], the PC50 is >100 µM.

For `COc1c(OC)c(OC)c2c(=O)c3c(O)cc(O)c(OC)c3oc2c1O`, in test [1], the Activity result is “Dose-dependent effect”. In test [2], the PC50 is >100 µM.

As for `COc1cc(O)c2c(=O)c3c(OC)c4c(c(OC)c3oc2c1OC)OCO4`, the Activity result in test [1] is “Dose-dependent effect”. Also, in test [2], the PC50 was 78.1 µM.

With `COc1cccc(C(=O)c2ccc(O)cc2O)c1`, in test [1], the Activity entry was “Dose-dependent effect”. Further, the PC50 in test [2] was >100 µM.

On to `O=c1c2ccc(O)c(O)c2oc2cccc(O)c12`, for which, in test [1], the Activity entry was “Dose-dependent effect”. The PC50 in test [2] is >100 µM.

Turning to `COc1cc(O)c2c(=O)c3c(OC)c(OC)c(OC)c(O)c3oc2c1OC`, the Activity entry in test [1] was “Dose-dependent effect”. Moreover, in test [2], the PC50 was >100 µM.

Take `COc1ccc2oc3ccc(O)c(OC)c3c(=O)c2c1O`: in test [1], the Activity entry was “Dose-dependent effect”. Also, the PC50 in test [2] was found to be 51.4 µM.
